From DBAASP
Values after ≈ are worked out from the molar mass of the structure shown. Blank lines part the entries; values can stand above or below the compound they belong to.

Legend:
Test in all cases: ≥ marks a high value that may be exact or a test limit, other limits are often not marked, values filed in µg/mL are converted to µM
[1] = tested on: Mycobacterium tuberculosis H37Rv
Listeria innocua = tested on: Listeria innocua
Escherichia coli = tested on: Escherichia coli
[2] = tested on: Salmonella enterica subsp. enterica serovar Enteritidis
Micrococcus luteus A270 = tested on: Micrococcus luteus A270
[3] = tested on: Staphylococcus aureus ATCC 6538
[4] = tested on: Staphylococcus aureus ATCC 43300
[5] = tested on: Candida albicans ATCC 90028
[6] = tested on: Escherichia coli ATCC 8739
[7] = tested on: Bacillus subtilis ATCC 6633
Bacillus megaterium Bm11 = tested on: Bacillus megaterium Bm11
[8] = tested on: Escherichia coli ATCC 25922
[9] = tested on: Staphylococcus aureus Cowan 1
Staphylococcus capitis 1 = tested on: Staphylococcus capitis 1
[10] = tested on: Yersinia pseudotuberculosis YPIII
[11] = tested on: Candida albicans ATCC 10231
[12] = tested on: Pectobacterium carotovorum subsp. carotovorum DSM 30168
[13] = tested on: Pseudomonas syringae pv. syringae DSM 10604
[14] = tested on: Clavibacter michiganensis subsp. michiganensis DSM 46294
[15] = tested on: Xanthomonas vesicatoria DSM 50861
[16] = tested on: Pseudomonas syringae pv. tomato DC3000
[17] = tested on: Pseudomonas corrugata DSM 7228
[18] = tested on: Bacillus anthracis Sterne 34F2
[19] = tested on: Bacillus subtilis ATCC 9372
[20] = tested on: Burkholderia thailandensis
Escherichia coli K-12 = tested on: Escherichia coli K-12
[21] = tested on: Staphylococcus aureus USA 300
[22] = tested on: Salmonella enterica subsp. enterica serovar Typhi
[23] = tested on: Pseudomonas aeruginosa ATCC 27853
Enterobacter cloacae = tested on: Enterobacter cloacae
Bacillus subtilis = tested on: Bacillus subtilis
Staphylococcus aureus = tested on: Staphylococcus aureus
Pseudomonas aeruginosa = tested on: Pseudomonas aeruginosa
[24] = tested on: Staphylococcus aureus ATCC 25923
Bacillus subtilis 168 = tested on: Bacillus subtilis 168
[25] = tested on: Pseudomonas aeruginosa PAO1

MIC [1]: ≥ 87.4 µM
SMILES: C[C@H](NC(=O)[C@@H]1CCCN1C(=O)[C@H](CCC(=O)O)NC(=O)[C@H](CCC(N)=O)NC(=O)[C@H](CCCCN)NC(=O)[C@@H]1CCCN1C(=O)[C@H](C)NC(=O)[C@@H]1CCCN1C(=O)[C@H](CCCCN)NC(=O)[C@@H]1CCCN1C(=O)[C@H](CCCCN)NC(=O)[C@@H](NC(=O)[C@@H](NC(=O)[C@H](CCCN=C(N)N)NC(=O)[C@@H]1CCCN1C(=O)[C@H](CCCCN)NC(=O)[C@@H](N)CCCN=C(N)N)[C@@H](C)O)[C@@H](C)O)C(=O)N[C@H](C(=O)N[C@@H](CCC(=O)O)C(=O)N[C@@H](CCC(=O)O)C(=O)O)[C@@H](C)O [RKPRTTKPKPAPKQEPATEE]

MIC (Listeria innocua): 6 µM (≈ 8.29 µg/mL)
MIC (Escherichia coli): 4 µM (≈ 5.53 µg/mL)
MIC [2]: 6 µM (≈ 8.29 µg/mL)
MIC (Micrococcus luteus A270): 4 µM (≈ 5.53 µg/mL)
SMILES: CSCC[C@H](N)C(=O)N[C@@H](CC(C)C)C(=O)N[C@H](C(=O)N[C@@H](C)C(=O)N[C@@H](CCC(=O)O)C(=O)N[C@@H](CCC(=O)O)C(=O)N[C@@H](CCCCN)C(=O)N[C@@H](C)C(=O)N[C@@H](C)C(=O)N[C@H](C(=O)N[C@H](C(=O)N[C@@H](C)C(=O)N[C@@H](Cc1ccccc1)C(=O)O)[C@@H](C)O)C(C)C)[C@@H](C)O [MLTAEEKAAVTAF]

MIC [3]: 3.1 µM (≈ 6.42 µg/mL)
MIC [4]: 12.5 µM (≈ 25.9 µg/mL)
MIC [5]: ≥ 50 µM
MIC [6]: 25 µM (≈ 51.7 µg/mL)
MIC [7]: 12.5 µM (≈ 25.9 µg/mL)
SMILES: CC[C@H](C)[C@H](NC(=O)CN)C(=O)N[C@@H](Cc1ccccc1)C(=O)N[C@@H](CO)C(=O)N[C@H](C(=O)N[C@H](C(=O)N[C@@H](Cc1ccccc1)C(=O)N[C@@H](CCCCN)C(=O)N[C@@H](C)C(=O)NCC(=O)N[C@@H](CCCCN)C(=O)NCC(=O)N[C@H](C(=O)N[C@H](C(=O)N[C@H]1CSSC[C@@H](C(=O)O)NC(=O)[C@H](CC(C)C)NC(=O)CNC(=O)[C@H]([C@@H](C)O)NC(=O)[C@H](CC(C)C)NC(=O)CNC1=O)C(C)C)[C@@H](C)CC)C(C)C)[C@@H](C)O [GIFSTVFKAGKGIVCGLTGLC]

MIC (Bacillus megaterium Bm11): 2.5 µM (≈ 3.45 µg/mL)
MIC [8]: > 40 µM
MIC [9]: 2.5 µM (≈ 3.45 µg/mL)
MIC (Staphylococcus capitis 1): 5 µM (≈ 6.9 µg/mL)
MIC [10]: 20 µM (≈ 27.6 µg/mL)
MIC [11]: 2.5 µM (≈ 3.45 µg/mL)
SMILES: CC[C@H](C)[C@H](NC(=O)CNC(=O)[C@H](C)NC(=O)[C@H](CC(C)C)NC(=O)[C@@H](NC(=O)[C@H](CCCN=C(N)N)NC(=O)CNC(=O)[C@@H](NC(=O)[C@H](CC(C)C)NC(=O)[C@@H]1CCCN1C(=O)[C@H](CC(C)C)NC(=O)[C@@H](N)Cc1ccccc1)[C@@H](C)CC)C(C)C)C(=O)N[C@@H](CC(C)C)C(N)=O [FLPLIGRVLAGIL]

MIC [12]: 3.96 µM (≈ 10 µg/mL)
MIC [13]: 3.96 µM (≈ 10 µg/mL)
MIC [14]: 0.989 µM (≈ 2.5 µg/mL)
MIC [15]: 0.989 µM (≈ 2.5 µg/mL)
MIC [16]: 3.96 µM (≈ 10 µg/mL)
MIC [17]: 3.96 µM (≈ 10 µg/mL)
SMILES: CC[C@H](C)[C@H](NC(=O)[C@H](C)NC(=O)[C@H](CC(C)C)NC(=O)[C@H](CCCN=C(N)N)NC(=O)[C@H](CC(C)C)NC(=O)[C@@H](NC(=O)[C@H](CCCN=C(N)N)NC(=O)[C@H](CC(C)C)NC(=O)[C@@H](NC(=O)[C@H](CC(C)C)NC(=O)[C@H](CCCN=C(N)N)NC(=O)[C@H](CCCN=C(N)N)NC(=O)[C@@H](N)CCCCN)[C@@H](C)CC)[C@@H](C)CC)C(=O)N[C@@H](CCCN=C(N)N)C(=O)N[C@H](C(=O)N[C@@H](CC(C)C)C(=O)N[C@H](C(=O)N[C@@H](CCCCN)C(=O)N[C@@H](CCCCN)C(=O)N[C@@H](CCCN=C(N)N)C(N)=O)C(C)C)[C@@H](C)CC [KRRLILRILRLAIRILVKKR]

SMILES: CC(=O)N[C@@H](C)C(=O)N[C@@H](CCC(=O)O)C(=O)N[C@@H](CCCN=C(N)N)C(=O)N[C@H](C(=O)NCC(=O)N[C@@H](C)C(=O)NCC(=O)N[C@@H](C)C(=O)N1CCC[C@H]1C(=O)N[C@H](C(=O)N[C@@H](Cc1ccc(O)cc1)C(=O)N[C@@H](CC(C)C)C(N)=O)C(C)C)C(C)C [AERVGAGAPVYL]
MIC [18]: ≥ 100 µM
MIC [19]: ≥ 100 µM
MIC [20]: ≥ 50 µM

MIC (Escherichia coli K-12): ≥ 60 µM
MIC [21]: ≥ 60 µM
SMILES: CC[C@H](C)[C@H](NC(=O)[C@H](CCCN=C(N)N)NC(=O)[C@H](CCC(N)=O)NC(=O)[C@@H](NC(=O)[C@@H](NC(=O)[C@H](CCCN=C(N)N)NC(=O)[C@H](CCCCN)NC(=O)[C@H](Cc1ccccc1)NC(=O)[C@H](CCC(=O)O)NC(=O)CN)[C@@H](C)CC)C(C)C)C(=O)N[C@@H](CCCCN)C(=O)N[C@@H](CC(=O)O)C(=O)N[C@@H](Cc1ccccc1)C(=O)N[C@@H](CC(C)C)C(=O)N[C@@H](CCCN=C(N)N)C(=O)N[C@@H](CC(N)=O)C(=O)N[C@@H](CC(C)C)C(=O)N[C@H](C(N)=O)C(C)C [GEFKRIVQRIKDFLRNLV]

MIC [22]: 3.84 µM (≈ 8 µg/mL)
MIC [8]: 30.7 µM (≈ 64 µg/mL)
MIC [23]: 61.5 µM (≈ 128 µg/mL)
MIC (Escherichia coli): 15.4 µM (≈ 32 µg/mL)
MIC (Enterobacter cloacae): ≥ 123 µM
MIC (Bacillus subtilis): ≥ 61.5 µM
MIC [5]: 30.7 µM (≈ 64 µg/mL)
MIC (Staphylococcus aureus): 61.5 µM (≈ 128 µg/mL)
MIC (Pseudomonas aeruginosa): 7.69 µM (≈ 16 µg/mL)
MIC [24]: 0.961 µM (≈ 2 µg/mL)
SMILES: CC(C)C[C@H](NC(=O)[C@H](CCCCN)NC(=O)[C@H](CCCN=C(N)N)NC(=O)[C@H](Cc1ccccc1)NC(=O)[C@H](Cc1ccccc1)NC(=O)[C@H](CCCCN)NC(=O)[C@H](CCCCN)NC(=O)[C@H](Cc1ccccc1)NC(=O)[C@H](CCCN=C(N)N)NC(=O)[C@H](CCCCN)NC(=O)[C@@H](NC(=O)[C@H](CC(C)C)NC(=O)[C@@H](N)CCCCN)C(C)C)C(=O)N[C@@H](CCCCN)C(=O)N[C@@H](CCCCN)C(=O)N[C@@H](CO)C(N)=O [KLVKRFKKFFRKLKKS]

SMILES: CC(C)C[C@H](NC(=O)[C@H](CCC(=O)O)NC(=O)[C@@H](NC(=O)[C@H](CC(=O)O)NC(=O)[C@H](CCCCN)NC(=O)[C@H](CC(N)=O)NC(=O)[C@H](C)NC(=O)[C@H](CCCCN)NC(=O)[C@H](CCCCN)NC(=O)CNC(=O)[C@H](CCCCN)NC(=O)[C@@H](N)CO)C(C)C)C(=O)N[C@@H](C)C(=O)N[C@@H](CCCN=C(N)N)C(=O)NCC(=O)O [SKGKKANKDVELARG]
MIC [18]: ≥ 100 µM
MIC [19]: ≥ 100 µM
MIC [20]: ≥ 50 µM

MIC (Bacillus subtilis 168): 3.12 µM (≈ 4.21 µg/mL)
MIC [25]: > 100 µM
MIC (Escherichia coli K-12): 25 µM (≈ 33.7 µg/mL)
MIC [21]: 1.56 µM (≈ 2.1 µg/mL)
SMILES: CC(C)C[C@H](NC(=O)[C@H](CC(C)C)NC(=O)[C@H](CCCCN)NC(=O)CNC(=O)[C@H](CC(C)C)NC(=O)[C@H](CC(C)C)NC(=O)[C@H](CO)NC(=O)[C@H](CC(C)C)NC(=O)[C@H](CC(C)C)NC(=O)[C@@H]1CCCN1C(=O)[C@H](CC(C)C)NC(=O)[C@H](CC(C)C)NC(=O)CN)C(N)=O [GLLPLLSLLGKLL]
